Measurements published in patent US20230303542A1, “SOLID FORMS OF A PARP14 INHIBITOR” (Ribon Therapeutics, Inc., priority 2022, published 2023).
In brackets after ≈: the same amount, converted by molar mass.

Experiments:
Format in all cases: physicochemical
[1] = Solid-state stability study (HPLC purity and XRPD); settings: 60° C. (closed) and 40° C./75%RH for 14 days
Method: HPLC analysis was performed with an Agilent HPLC 1260 series instrument.
At day 0, 7 and 14, the sample was dissolved in diluent to prepare solution for HPLC purity analysis. Solid samples were analyzed by XRPD to check the crystal form.
(closed) and 40° C./75%RH (open) up to 14 days, samples were prepared in duplicate for each condition. […] (closed) and 40° C./75%RH for 14 days.

[2] = Dynamic solubility of Form II in single solvents, dissolution observed visually; settings: thermodynamic from solid, 22° C.
Method: An appropriate amount of Form II was weighed into a sample vial and then the indicated solvent was added gradually until all the solid was dissolved at RT. The dissolution was observed visually.

[3] = Kinetic solubility of Form II, clear temperature point by Crystal 16; settings: organic solvent or mixture, thermodynamic from solid; at 30° C.; volume ratio of MeOH-water/MTBE 9/1/30
[4] = Dynamic solubility of Form II in mixed solvents, dissolution observed visually; settings: thermodynamic from solid
Source text: The solubility data was used to control supersaturation and calculate theoretical yield of the crystallization process.

[5] = Preliminary solubility of Compound 1 Form I, visual assessment; settings: thermodynamic from solid, estimated via visual assessment
[6] = organic solvent or mixture, 2-Me-THF
[7] = organic solvent or mixture, Acetone
[8] = organic solvent or mixture, Ethanol (EtOH)
[9] = organic solvent or mixture, Ethyl acetate (EA)
[10] = organic solvent or mixture, Methanol (MeOH)
[11] = organic solvent or mixture, Methyl ethyl ketone (MEK)

CC(=O)N1CCC(COc2cc(F)c3c(=O)[nH]c(CSC4CCOCC4)nc3c2)CC1 [Form II, 7-((1-acetylpiperidin-4-yl)methoxy)-5-fluoro-2-(((tetrahydro-2H-pyran-4-yl)thio)methyl)quinazolin-4(3H)-one]
Physical and chemical stability [1]: both physically and chemically stable | solubility [2, 6]: 700 µg/mL (≈ 1.56 mM) | solubility ([2]; organic solvent or mixture, 2-Propanol (IPA)): < 600 µg/mL | solubility ([2]; organic solvent or mixture, Acetic acid): > 167000 µg/mL | solubility [2, 7]: 800 µg/mL (≈ 1.78 mM) | solubility ([2]; organic solvent or mixture, Acetonitrile (ACN)): 600 µg/mL (≈ 1.33 mM) | solubility ([2]; organic solvent or mixture, Dichloromethane (DCM)): 16700 µg/mL (≈ 37.1 mM) | solubility ([2]; organic solvent or mixture, Dimethyl sulfoxide (DMSO)): 12500 µg/mL (≈ 27.8 mM) | solubility [2, 8]: 1000 µg/mL (≈ 2.22 mM) | solubility [2, 9]: < 600 µg/mL | solubility ([2]; organic solvent or mixture, Isopropyl acetate (IPAc)): < 600 µg/mL | solubility [2, 10]: 8300 µg/mL (≈ 18.5 mM) | solubility [2, 11]: 1700 µg/mL (≈ 3.78 mM) | solubility ([2]; organic solvent or mixture, Tert-Butyl methyl ether (MTBE)): < 600 µg/mL | solubility ([2]; organic solvent or mixture, Tetrahydrofuran (THF)): 4200 µg/mL (≈ 9.34 mM) | solubility ([2]; organic solvent or mixture, Toluene (Tol)): < 600 µg/mL | solubility ([2]; organic solvent or mixture, n-Heptane (Hept)): < 600 µg/mL | solubility ([2]; Water): < 600 µg/mL | solubility at 30 min [3]: 6500 µg/mL | solubility ([4]; MeOH/Anisole (1/2), organic solvent or mixture, MeOH/Anisole (½), 25° C.): ~150000 µg/mL (≈ 334 mM) | solubility ([4]; MeOH/Anisole (1/2), organic solvent or mixture, MeOH/Anisole (½), 40° C.): > 200000 µg/mL | solubility ([4]; organic solvent or mixture, Anisole, 25° C.): < 1000 µg/mL | solubility ([4]; organic solvent or mixture, MeOH/Anisole (1/1), 25° C.): 163000 to 176000 µg/mL (≈ 363 to 392 mM) | solubility ([4]; organic solvent or mixture, MeOH/Anisole (1/1), 40° C.): ~250000 µg/mL (≈ 556 mM) | solubility ([4]; organic solvent or mixture, MeOH/Anisole (2/1), 25° C.): 96000 to 106000 µg/mL (≈ 214 to 236 mM) | solubility at 30 min ([4]; organic solvent or mixture, MeOH/Anisole, volume ratio 1/1, RT, read-out: Solubility): 150000 to 160000 µg/mL | solubility ([4]; organic solvent or mixture, MeOH/Anisole/Hept (1/1/6), 25° C.): < 5000 µg/mL | solubility ([4]; organic solvent or mixture, MeOH/Anisole/Hept (1/2/3), 25° C.): > 10000 µg/mL | solubility ([4]; organic solvent or mixture, MeOH/Anisole/Hept (1/2/6), 25° C.): ~5000 µg/mL (≈ 11.1 mM) | solubility ([4]; organic solvent or mixture, MeOH/Anisole/MTBE (1/2/6), 25° C.): ~3000 µg/mL (≈ 6.67 mM) | solubility at 30 min ([4]; organic solvent or mixture, MeOH/MEK, volume ratio 1/1, RT, read-out: Solubility): 20000 to 30000 µg/mL | solubility ([4]; organic solvent or mixture, MeOH/water (7/3), 60° C.): ~125000 µg/mL (≈ 278 mM) | solubility at 30 min ([4]; organic solvent or mixture, MeOH/water (7/3), RT, read-out: Dynamic solubility): 10000 to 13000 µg/mL (≈ 22.2 to 28.9 mM) | solubility ([4]; organic solvent or mixture, MeOH/water (8/2), 50° C.): 50000 to 100000 µg/mL (≈ 111 to 222 mM) | solubility ([4]; organic solvent or mixture, MeOH/water (8/2), 60° C.): > 125000 µg/mL | solubility at 30 min ([4]; organic solvent or mixture, MeOH/water (8/2), RT, read-out: Dynamic solubility): 13000 to 17000 µg/mL (≈ 28.9 to 37.8 mM) | solubility ([4]; organic solvent or mixture, MeOH/water (9/1), 0° C.): 6000 to 10000 µg/mL (≈ 13.3 to 22.2 mM) | solubility ([4]; organic solvent or mixture, MeOH/water (9/1), 60° C.): > 125000 µg/mL | solubility at 30 min ([4]; organic solvent or mixture, MeOH/water (9/1), RT (Table of MeOH/Water), read-out: Dynamic solubility): 10000 to 13000 µg/mL (≈ 22.2 to 28.9 mM) | solubility at 30 min ([4]; organic solvent or mixture, MeOH/water, volume ratio 9/1, RT (Table of mixed solvents at RT), read-out: Solubility): 35000 to 43000 µg/mL | solubility ([4]; organic solvent or mixture, MeOH/water/MTBE (9/1/10), 0° C.): > 4500 µg/mL | solubility ([4]; organic solvent or mixture, MeOH/water/MTBE (9/1/20), 0° C.): ~3000 µg/mL (≈ 6.67 mM) | solubility ([4]; organic solvent or mixture, MeOH, 25° C.): 8300 µg/mL (≈ 18.5 mM) | solubility ([4]; organic solvent or mixture, MeOH, 50° C.): 29000 to 33000 µg/mL (≈ 64.5 to 73.4 mM) | solubility ([4]; organic solvent or mixture, MeOH, 60° C.): 71000 to 83000 µg/mL (≈ 158 to 185 mM) | solubility at 30 min ([4]; organic solvent or mixture, MeOH, RT, read-out: Dynamic solubility): 8300 µg/mL (≈ 18.5 mM) | solubility at 30 min ([4]; volume ratio 1/2, organic solvent or mixture, Ethyl formate/Acetone, volume ratio ½, RT, read-out: Solubility): < 2000 µg/mL | solubility at 30 min ([4]; volume ratio 1/2, organic solvent or mixture, Ethyl formate/EA, volume ratio ½, RT, read-out: Solubility): < 1000 µg/mL | solubility at 30 min ([4]; volume ratio 1/2, organic solvent or mixture, Ethyl formate/IPA, volume ratio ½, RT, read-out: Solubility): < 2000 µg/mL | solubility at 30 min ([4]; volume ratio 1/2, organic solvent or mixture, Ethyl formate/IPAC, volume ratio ½, RT, read-out: Solubility): < 1000 µg/mL | solubility at 30 min ([4]; volume ratio 1/2, organic solvent or mixture, Ethyl formate/MEK, volume ratio ½, RT, read-out: Solubility): < 2000 µg/mL | solubility at 30 min ([4]; volume ratio 1/2, organic solvent or mixture, Ethyl formate/MTBE, volume ratio ½, RT, read-out: Solubility): < 2000 µg/mL | solubility at 30 min ([4]; volume ratio 1/2, organic solvent or mixture, Ethyl formate/diethyl ether, volume ratio ½, RT, read-out: Solubility): 7000 to 8000 µg/mL | solubility at 30 min ([4]; volume ratio 1/2, organic solvent or mixture, Ethyl formate/n-BuOH, volume ratio ½, RT, read-out: Solubility): 3000 to 4000 µg/mL | solubility at 30 min ([4]; volume ratio 1/2, organic solvent or mixture, MEK/EA, volume ratio ½, RT, read-out: Solubility): < 1000 µg/mL | solubility at 30 min ([4]; volume ratio 1/2, organic solvent or mixture, MEK/Ethyl formate, volume ratio ½, RT, read-out: Solubility): < 1000 µg/mL | solubility at 30 min ([4]; volume ratio 1/2, organic solvent or mixture, MEK/IPA, volume ratio ½, RT, read-out: Solubility): < 1000 µg/mL | solubility at 30 min ([4]; volume ratio 1/2, organic solvent or mixture, MEK/IPAC, volume ratio ½, RT, read-out: Solubility): < 1000 µg/mL | solubility at 30 min ([4]; volume ratio 1/2, organic solvent or mixture, MEK/diethyl ether, volume ratio ½, RT, read-out: Solubility): < 1000 µg/mL | solubility at 30 min ([4]; volume ratio 1/2, organic solvent or mixture, MEK/n-BuOH, volume ratio ½, RT, read-out: Solubility): < 1000 µg/mL | solubility at 30 min ([4]; volume ratio 1/2, organic solvent or mixture, MeOH/Acetone, volume ratio ½, RT, read-out: Solubility): < 14000 µg/mL | solubility at 30 min ([4]; volume ratio 1/2, organic solvent or mixture, MeOH/Diethyl ether, volume ratio ½, RT, read-out: Solubility): < 2000 µg/mL | solubility at 30 min ([4]; volume ratio 1/2, organic solvent or mixture, MeOH/EA, volume ratio ½, RT, read-out: Solubility): < 10000 µg/mL | solubility at 30 min ([4]; volume ratio 1/2, organic solvent or mixture, MeOH/Ethyl formate, volume ratio ½, RT, read-out: Solubility): < 25000 µg/mL | solubility at 30 min ([4]; volume ratio 1/2, organic solvent or mixture, MeOH/MEK, volume ratio ½, RT, read-out: Solubility): 24000 to 30000 µg/mL | solubility at 30 min ([4]; volume ratio 1/2, organic solvent or mixture, MeOH/n-BuOH, volume ratio ½, RT, read-out: Solubility): < 3000 µg/mL | solubility at 30 min ([4]; volume ratio 1/9, organic solvent or mixture, MeOH/Ethyl formate, volume ratio ⅑, RT, read-out: Solubility): < 1000 µg/mL | solubility at 30 min ([4]; volume ratio 1/9, organic solvent or mixture, MeOH/MEK, volume ratio ⅑, RT, read-out: Solubility): 7000 to 8000 µg/mL

CC(=O)N1CCC(COc2cc(F)c3c(=O)[nH]c(CSC4CCOCC4)nc3c2)CC1 [Form I, 7-((1-acetylpiperidin-4-yl)methoxy)-5-fluoro-2-(((tetrahydro-2H-pyran-4-yl)thio)methyl)quinazolin-4(3H)-one]
solubility [5, 6]: 10000 µg/mL (≈ 22.2 mM) | solubility ([5]; organic solvent or mixture, ACN): < 600 µg/mL | solubility [5, 7]: 1000 µg/mL (≈ 2.22 mM) | solubility ([5]; organic solvent or mixture, DCM): 6300 µg/mL (≈ 14 mM) | solubility ([5]; organic solvent or mixture, DMSO): 16700 µg/mL (≈ 37.1 mM) | solubility [5, 8]: 3300 µg/mL (≈ 7.34 mM) | solubility [5, 9]: 2500 µg/mL (≈ 5.56 mM) | solubility ([5]; organic solvent or mixture, Heptane): < 600 µg/mL | solubility ([5]; organic solvent or mixture, Isopropyl acetate (IPAC)): 1300 µg/mL (≈ 2.89 mM) | solubility ([5]; organic solvent or mixture, Isopropyl alcohol (IPA)): < 600 µg/mL | solubility [5, 10]: 10000 µg/mL (≈ 22.2 mM) | solubility [5, 11]: 10000 µg/mL (≈ 22.2 mM) | solubility ([5]; organic solvent or mixture, Methyl tert-butyl ether (MTBE)): < 600 µg/mL | solubility ([5]; organic solvent or mixture, THF): 4200 µg/mL (≈ 9.34 mM) | solubility ([5]; organic solvent or mixture, Toluene): < 600 µg/mL | solubility ([5]; Water): < 600 µg/mL
